Reference: patent publication US8952033B2, “4-anilinofuro[2,3-b]quinoline derivatives, their preparation processes, and pharmaceutical compositions comprising the same” (Kaohsiung Medical University, priority 2011, dated 2015)
Converted amounts (≈) assume the structure as drawn. Marks after values point to notes of the source that are not given here.

Key:
[1] = Determination of solubility in water; format: physicochemical; conditions: 25±0.1° C., stirred overnight, UV-VIS; for solubility: water, 25 °C, thermodynamic from solid
Procedure: Determination of solubility in water was conducted substantially according to the method as described in Vougogiannopoulou, K. et al. (2008), J. Med. Chem., 51:6421-6431. An excess amount of the respective test compound was added into water, followed by sonication for 5 minutes. The resultant mixture was stirred at ambient temperature (25±0.1° C.) overnight. Centrifugation at 4000 rpm and 25° C. was conducted for 5 minutes. Absorbance of the sample of the respective test compound was measured at 315-420 nm using a UV-VIS spectrophotometer (JASCO UV-Visible V570). For each test compound, a standard curve was generated by plotting concentrations of standard solutions and the corresponding absorbances. The absorbance of the sample of each test compound was then converted to solubility in water (μg/mL) using the corresponding standard curve.

[2] = in vitro anticancer assay, earlier work of the applicants; cited from earlier work
[3] = test system: MCF-7 (breast cancer cell); test: MTT antiproliferative assay (cell growth %, GI50), MCF-7; format: cell-based; conditions: for activity at 4000 µg/mL / activity at 20000 µg/mL / GI50: Homo sapiens, MCF7; for activity at 4000 µg/mL: 4 mg/ml; for activity at 4000 µg/mL / activity at 20000 µg/mL: 48 hours, MTT; for activity at 20000 µg/mL: 20 mg/ml; for SI MCF-7: GI50 MRC-5 / GI50 MCF-7; for GI50: mean±SD, read-out: GI50 MCF-7
Procedure: (§1) Antiproliferative activities of the compounds of this invention were evaluated substantially according to the method as described in Tseng, C. […] The cells were treated with the test compounds, i.e., the compounds of this invention (in dimethylsulfoxide (DMSO)), or DMSO for 48 hours.
(§2) Before and after the treatment with the test compounds or DMSO, 3-(4,5-dimethylthiazol-2-yl)-2,5-diphenyltetrazolium bromide (MTT, 2 mg/mL, 100 μL) was added to each of the cultures, followed by cultivation for 2 hours. The resultant formazan was dissolved by the addition of DMSO. Absorbance at 570 nm (OD570) was measured using a microtiter plate reader (Dynex MRX-II).
(§3) Determination of GI50 was conducted thrice for each test compound. GI50 is expressed as mean±SD.

[4] = test system: NCI-H460 (non-small cell lung carcinoma cell); test: MTT antiproliferative assay (cell growth %, GI50), NCI-H460; format: cell-based; conditions: for activity at 4000 µg/mL / activity at 20000 µg/mL / GI50: Homo sapiens, NCI-H460; for activity at 4000 µg/mL: 4 mg/ml; for activity at 4000 µg/mL / activity at 20000 µg/mL: 48 hours, MTT; for activity at 20000 µg/mL: 20 mg/ml; for SI NCI-H460: GI50 MRC-5 / GI50 NCI-H460; for GI50: mean±SD, read-out: GI50 NCI-H460
Procedure: as §1, §2, §3

[5] = test system: MRC-5 (human lung fibroblast cell); test: GI50 determination on normal cell line MRC-5; format: cell-based; conditions: MRC5, normal cell line, mean±SD, read-out: GI50 MRC-5
Procedure: as §1, §2, §3

[6] = test system: SF-268 (central nervous system carcinoma cell); test: MTT antiproliferative assay (cell growth %, GI50), SF-268; format: cell-based; conditions: for SI SF-268: GI50 MRC-5 / GI50 SF-268; for GI50: Homo sapiens, SF-268, mean±SD, read-out: GI50 SF-268
Procedure: as §1, §2, §3

[7] = Single-dose pharmacokinetic analysis in CD-1 mice; format: in vivo; conditions: for Bioavailability: oral 20 mg/kg versus intravenous 2 mg/kg
Procedure: CD-1 mice were divided into two groups. The first group of mice (n=9) were used to assess the singe-dose pharmacokinetics of the test compounds after intravenous administration, and the second group of mice (n=9) were utilized to assess the singe-dose pharmacokinetics of the test compounds after oral administration. All of the mice were fasted from 4 hours before the administration of the test compounds until 4 hours after the administration of the test compounds.
The assessment for singe-dose pharmacokinetics of the test compounds after intravenous administration was performed as follows. The first group of mice were further randomly divided into three subgroups including compound 13a group (n=3), compound 14a group (n=3), and compound 1 group (n=3). Compounds 13a, 14a, 1 (in polyethylene glycol 400/ethanol/water (30/5/65, v/v/v)) were respectively administered to the mice in compound 13a group, compound 14a group, and compound 1 group at a dose of 2 mg/kg via tail vein injection. Blood samples (0.25 mL) were collected from the mice by virtue of cardiac puncture right before the intravenous administration, and at 2 min, 5 min, 15 min, 30 min, 1 hr, 1.5 hr, 2 hr, 4 hr, 6 hr, 9 hr, 24 hr, and 27 hr after the intravenous administration.
The assessment for singe-dose pharmacokinetics of the test compounds after oral administration was conducted as follows. The second group of mice were further randomly divided into three subgroups including compound 13a group (n=3), compound 14a group (n=3), and compound 1 group (n=3). Compounds 13a, 14a, 1 (in 0.5% methylcellulose) were respectively administered to the mice in compound 13a group, compound 14a group, and compound 1 group at a dose of 20 mg/kg via tube feeding. Blood samples (0.25 mL) were collected from the mice by virtue of cardiac puncture right before the oral administration, and at 15 min, 30 min, 1 hr, 1.5 hr, 2 hr, 4 hr, 6 hr, 9 hr, 24 hr, and 27 hr after the oral administration.
Each of the blood samples was placed in a 0.5 mL Microtainer® tube containing anticoagulant EDTA-K2, followed by mixing evenly. Centrifugation at 7000 g and 4° C. was conducted for 5 minutes. Plasma was collected and was mixed uniformly with a proper amount of acetonitrile, followed by centrifugation. The resultant supernatant was acquired, and was injected into a reversed-phase Biosil ODS column so as to determine the concentration of the respective test compound in plasma (i.e., the plasma concentration of the respective test compound) using a LC-MS/MS system (Waters 2795 LC and Micromass Quattro Ultima). The singe-dose pharmacokinetic parameters of the respective test compound were calculated from the obtained concentration of the respective test compound in plasma (i.e., the obtained plasma concentration of the respective compound) at different time points using WinNonlin Standard Program (version 3.1, Pharsight Corp.)

tubulin = conditions: Huang Y. T. et al. (2005); cited from earlier work
[8] = intravenous administration, 2 mg/kg
[9] = intravenous administration, 2 mg/kg, extrapolated plasma concentration at 0 hr
[10] = intravenous administration, 2 mg/kg, from 0.5-1.5 hr (compd. 1) or 9-27 hr (13a, 14a)
[11] = oral administration, 20 mg/kg, from 2-6 hr (compd. 1), 2-24 hr (13a), 2-9 hr (14a)

Compound | solubility [1] | Antiproliferative potency compared with amsacrine (m-AMSA) [2] | activity at 4000 µg/mL [3] | activity at 20000 µg/mL [3] | activity at 4000 µg/mL [4] | activity at 20000 µg/mL [4] | GI50 [5] | SI SF-268 [6] | GI50 [6] | Solubility in water [1] | SI MCF-7 [3] | GI50 [3] | AUC(0-inf) [7, 8] | CL [7, 8] | MRT [7, 8] | Vss [7, 8] | Vz [7, 8] | Cmax [7, 9] | t1/2 [7, 10] | Bioavailability [7] | other results
C/C(=N\O)c1ccc(Nc2c3ccccc3nc3occc23)cc1 [Compound 2, (E)-1-(4-(furo[2,3-b]quinolin-4-ylamino)phenyl)ethanone oxime, reference compound] | 10 µg/mL (≈ 31.5 µM) | comparable to that of amsacrine | 64% | 58% | 27% | 21% |  |  |  |  |  |  |  |  |  |  |  |  |  |  | 
C/C(=N\OCCN)c1ccc(Nc2c3ccccc3nc3occ(Cl)c23)cc1 [Compound 14a, (E)-1-(4-(3-Chlorofuro[2,3-b]quinolin-4-ylamino)phenyl)ethanone O-2-aminoethyl oxime] |  |  | 59% | -1% | 32% | -1% | 47 ± 1.21 µM | 5.15 | 9.14 ± 0.72 µM | 25 µg/mL (≈ 63.3 µM) | 1.52 | 31.01 ± 0.03 µM | 409.8 ng·h/mL | 81.3 mL/min/kg | 6.1 h | 30.0 L/kg | 103.8 L/kg | 3601 ng/mL | 14.7^d hr | 5.9% | AUC(0-inf) ([7]; oral administration, 20 mg/kg): 242.6 ng·h/mL; Cmax ([7]; oral administration, 20 mg/kg): 114.3 ng/mL; MRT ([7]; oral administration, 20 mg/kg): 2.8 h; Time after which compound was unable to be detected in plasma ([7]; oral administration, 20 mg/kg): 9 h; Tmax ([7]; oral administration, 20 mg/kg): 1.0 h; t1/2 [7, 11]: 1.7^f hr; SI NCI-H460 [4]: 66.25; GI50 [4]: 0.71 ± 0.02 µM
COc1ccc2c(Nc3ccc(/C(C)=N/OCCN)cc3)c3ccoc3nc2c1 [Compound 15a, (E)-1-(4-(7-Methoxyfuro[2,3-b]quinolin-4-ylamino)phenyl)ethanone O-2-aminoethyl oxime] |  |  | 71% | 8% | 14% | 11% | 45.11 ± 0.31 µM | 5.53 | 8.15 ± 0.44 µM | 16 µg/mL (≈ 41 µM) | 1.24 | 36.23 ± 0.05 µM |  |  |  |  |  |  |  |  | SI NCI-H460 [4]: 11.39; GI50 [4]: 3.96 ± 0.14 µM
CC(=O)c1ccc(Nc2c3ccccc3nc3occc23)cc1 [Compound 1, 1-(4-(furo[2,3-b]quinolin-4-ylamino)phenyl)ethanone, reference compound] | 6 µg/mL (≈ 19.8 µM) | higher than that of amsacrine | 69% | 61% | 33% | 30% |  |  |  |  |  |  | 211 ng·h/mL | 158 mL/min/kg | 0.1 h | 1.2 L/kg | 4.1 L/kg | 3064 ng/mL | 0.3^b hr | 2.1% | Effect on tubulin (tubulin): binding to tubulin and inhibiting tubulin polymerization; Time after which compound was unable to be detected in plasma [7, 8]: 1.5 h; AUC(0-inf) ([7]; oral administration, 20 mg/kg): 45 ng·h/mL; Cmax ([7]; oral administration, 20 mg/kg): 21 ng/mL; MRT ([7]; oral administration, 20 mg/kg): 2.7 h; Time after which compound was unable to be detected in plasma ([7]; oral administration, 20 mg/kg): 6 h; Tmax ([7]; oral administration, 20 mg/kg): 0.3 h; t1/2 [7, 11]: 2.0^c hr
CO/N=C(\C)c1ccc(Nc2c3ccccc3nc3occc23)cc1 [Compound 3, (E)-1-(4-(furo[2,3-b]quinolin-4-ylamino)phenyl)ethanone O-methyloxime, reference compound] | 8 µg/mL (≈ 24.1 µM) | comparable to that of amsacrine | 63% | 37% | 51% | 23% |  |  |  |  |  |  |  |  |  |  |  |  |  |  | 
